Data on four molecules can be found in patent US5998654A, “Retinoic acid receptor antagonist compounds and methods” (Ligand Pharmaceuticals Incorporated, priority 1997, dated 1999).

The target of test [1] is T1, RARβ (Homo sapiens, UniProt P10826).
T1 sequence (P10826 1-448 isoform P10826-2): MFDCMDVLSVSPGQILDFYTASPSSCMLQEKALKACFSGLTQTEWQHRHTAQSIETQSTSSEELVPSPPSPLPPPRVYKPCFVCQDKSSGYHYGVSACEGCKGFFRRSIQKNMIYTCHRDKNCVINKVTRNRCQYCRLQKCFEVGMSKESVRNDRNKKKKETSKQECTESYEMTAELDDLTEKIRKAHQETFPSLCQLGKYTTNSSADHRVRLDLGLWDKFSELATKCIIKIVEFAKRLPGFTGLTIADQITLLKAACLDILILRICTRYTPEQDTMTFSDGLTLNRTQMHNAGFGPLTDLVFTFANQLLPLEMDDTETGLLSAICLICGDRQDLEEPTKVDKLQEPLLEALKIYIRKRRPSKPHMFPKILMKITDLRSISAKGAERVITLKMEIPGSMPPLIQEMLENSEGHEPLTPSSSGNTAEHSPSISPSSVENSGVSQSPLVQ
Kind of test: RAR binding, RARβ. Particulars: Kd from IC50 by Cheng-Prussof equation. Here is the method:
Non-specific binding was defined as that binding remaining in the presence of 500 nM of the appropriate unlabelled compound. At the end of the incubation period, bound from free ligand were separated. The amount of bound tritiated retinoids was determined by liquid scintillation counting of an aliquot (700 μL) of the supernatant fluid or the hydroxylapatite pellet.
After correcting for non-specific binding, IC50 values were determined. […] The IC50 value was determined graphically from a log-logit plot of the data. The Kd values were determined by application of the Cheng-Prussof equation to the IC50 values, the labeled ligand concentration and the Kd of the labeled ligand.

The next test addresses T2, RARγ (Homo sapiens, UniProt P13631).
T2 sequence (P13631 1-454): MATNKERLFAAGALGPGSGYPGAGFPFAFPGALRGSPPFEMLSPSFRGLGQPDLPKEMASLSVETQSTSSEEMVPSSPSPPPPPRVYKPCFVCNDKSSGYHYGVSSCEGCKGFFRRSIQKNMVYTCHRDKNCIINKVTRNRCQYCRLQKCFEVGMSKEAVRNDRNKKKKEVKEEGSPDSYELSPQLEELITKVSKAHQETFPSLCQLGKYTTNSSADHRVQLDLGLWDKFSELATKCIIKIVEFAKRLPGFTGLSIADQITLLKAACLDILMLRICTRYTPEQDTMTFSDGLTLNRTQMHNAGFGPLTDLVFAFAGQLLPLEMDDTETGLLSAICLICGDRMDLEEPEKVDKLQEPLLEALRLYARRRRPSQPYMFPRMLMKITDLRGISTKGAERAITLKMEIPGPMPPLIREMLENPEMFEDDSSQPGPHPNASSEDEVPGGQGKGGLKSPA
Kind of test: co-transfection assay, antagonist activity on RARγ. The conditions noted are these: CV-1 cells, in presence of known RAR agonist TTNPB; for IC50: read-out: IC50 antagonist potency, RARγ. On the set-up: expressed in transfected cells; host or cells: CV-1 cells (African green monkey kidney). Format: cell-based. From the text:
(§1) This assay is described in further detail in U.S. Pat. Nos. 4,981,784 and 5,071,773, the disclosures of which are incorporated herein by reference.
(§2) In the co-transfection assay, a cloned cDNA for an IR (e.g., human RARα:, RARβ, RXRγ) under the control of a constitutive promoter (e.g., the SV 40 promoter) is introduced by transfection (a procedure to induce cells to take up foreign genes) into a background cell substantially devoid of endogenous IRs. This introduced gene directs the recipient cells to make the IR protein of interest. A second gene is also introduced (co-transfected) into the same cells in conjunction with the IR gene. This second gene, comprising the cDNA for a reporter protein, such as firefly luciferase (LUC), is controlled by an appropriate hormone responsive promoter containing a hormone response element (HRE). This reporter plasmid functions as a reporter for the transcription-modulating activity of the target IR. Thus, the reporter acts as a surrogate for the products (mRNA then protein) normally expressed by a gene under control of the target receptor and its native hormone.
(§3) The co-transfection assay can detect small molecule agonists or antagonists of target IRs. Exposing the transfected cells to an agonist ligand compound increases reporter activity in the transfected cells. This activity can be conveniently measured, e.g., by increasing luciferase production, which reflects compound-dependent, IR-mediated increases in reporter transcription. To detect antagonists, the co-transfection assay is carried out in the presence of a constant concentration of an agonist to the target IR (e.g., all-trans retinoic acid for RARα) known to induce a defined reporter signal. Increasing concentrations of a suspected antagonist will decrease the reporter signal (e.g., luciferase production). The co-transfection assay is therefore useful to detect both agonists and antagonists of specific IRs. Furthermore, it determines not only whether a compound interacts with a particular IR, but whether this interaction mimics (agonizes) or blocks (antagonizes) the effects of the native regulatory molecules on target gene expression, as well as the specificity and strength of this interaction.
CV-1 cells (African green monkey kidney fibroblasts) were cultured in the presence of Dulbecco's Modified Eagle Medium (DMEM) supplemented with 10% charcoal resin-stripped fetal bovine serum then transferred to 96-well microtiter plates one day prior to transfection.
To determine RAR and/or RXR agonist activity of the compounds of the present invention, the CV-1 cells were transiently transfected by calcium phosphate coprecipitation according to the procedure of Berger et al., 41 J. Steroid Biochem. Mol. Biol., 733 (1992) with the following receptor expressing plasmids: pRShRARα: Giguere et al., 330 Nature, 624 (1987); pRShRARβ and pRShRARγ, Ishikawa et al., 4 Mol. Endocrin., 837 (1990); pRShRXRα, Mangelsdorf et al., 345 Nature, 224 (1990); and pRSmRXRβ and pRSmRXRγ, Mangelsdorf et al., 6 Genes & Devel., 329 (1992), the disclosures of which are herein incorporated by reference. Each of these receptor expressing plasmids was co-transfected at a concentration of 5 ng/well, along with a basal reporter plasmid at 100 ng/well, the internal control plasmid pRS-β-Gal at 50 ng/well and filler DNA, pGEM at 45 ng/well.
The basal reporter plasmid D-MTV-LUC (Hollenberg and Evans, 55 Cell, 899 (1988), the disclosure of which is herein incorporated by reference) containing two copies of the TRE-palindromic response element described in Umesono et al., 336 Nature, 262 (1988), the disclosure of which is herein incorporated by reference, was used in transfections for the RARs, and the reporter plasmid CRBPIIFKLUC, which contains an RXRE (retinoid X receptor response element, as described in Mangelsdorf et al., 66 Cell, 555 (1991), the disclosure of which is herein incorporated by reference), was used in transfections for the RXRs.

Test [2] has as its target T1, RARβ. As to the kind of experiment: co-transfection assay, agonist activity on RARβ. On the set-up: expressed in transfected cells; host or cells: CV-1 cells (African green monkey kidney). The conditions noted are these: CV-1 cells; read-out: EC50 agonist potency, RARβ. Type of test: cell-based.
From the text: as §1, §2, §3
CV-1 cells (African green monkey kidney fibroblasts) were cultured in the presence of Dulbecco's Modified Eagle Medium (DMEM) supplemented with 10% charcoal resin-stripped fetal bovine serum then transferred to 96-well microtiter plates one day prior to transfection. […]

Take `CCCCOc1c(C(C)(C)C)cc(/C(C)=C/C=C/C(C)=C/C(=O)O)cc1C(C)(C)C` [Compound 7, 2E, 4E, 6E-[7-(3,5-Di-t-butyl-4-n-butoxyphenyl)-3-methyl]-octa-2,4,6-trienoic acid]: the affinity at RARβ [1], expressed as Kd, was 5 nM. Also, on RARγ, the “efficacy of antagonist, % of maximal inhibition, RARγ (in parentheses after IC50)” value stood at 91% and the IC50 was determined as 2 nM. In addition, at RARβ [2], the EC50 was above 10000 nM.

For `CCCOc1c(C(C)(C)C)cc(/C(C)=C/C=C/C(C)=C/C(=O)O)cc1C(C)(C)C` [Compound 8, 2E, 4E, 6E-[7-(3,5-Di-t-butyl-4-n-propoxyphenyl)-3-methyl]-octa-2,4,6-trienoic acid], the Kd on RARβ [1] worked out at 1 nM. On RARγ, the “efficacy of antagonist, % of maximal inhibition, RARγ (in parentheses after IC50)” value turned out to be 85% and the half-inhibitory concentration (IC50) was determined as 3 nM. Further, the EC50 on RARβ [2] was above 10000 nM.

For the molecule `CCCCCOc1c(C(C)(C)C)cc(/C(C)=C/C=C/C(C)=C/C(=O)O)cc1C(C)(C)C` [Compound 9, 2E, 4E, 6E-[7-(3,5-Di-t-butyl-4-n-pentoxyphenyl)-3-methyl]-octa-2,4,6-trienoic acid], the Kd at RARβ [1] was determined as 5 nM. Further, at RARγ, the “efficacy of antagonist, % of maximal inhibition, RARγ (in parentheses after IC50)” value is recorded as 80% and the IC50 turned out to be 5 nM. Moreover, the EC50 at RARβ [2] was above 10000 nM.

As to `C=C(c1ccccc1)c1cc(/C(C)=C/C=C/C(C)=C/C(=O)O)cc(C(C)(C)C)c1` [Compound 17, (2E,4E,6E)-7-[3-t-butyl-5-(1-phenyl-vinyl)-phenyl]-3-methyl-octa-2,4,6-trienoic acid], the Kd on RARβ [1] is 3 nM. In addition, on RARγ, the “efficacy of antagonist, % of maximal inhibition, RARγ (in parentheses after IC50)” value was determined as 85% and the IC50 came out at 2 nM. At RARβ [2], the concentration for a half-maximal effect (EC50) was above 10000 nM.
